This note sets out measurements from publication PMC4055737, “Forward Genetic Screening Identifies a Small Molecule That Blocks Toxoplasma gondii Growth by Inhibiting Both Host- and Parasite-Encoded Kinases” (PLoS Pathogens, 2014).

Structures can show the parent of a compound that is named as a salt.

This test concerns the target T1, TgMAPK1 (Toxoplasma gondii, UniProt S8EUF0).
T1 construct: gene MAPKL1; full-length, endogenously C-terminally 3×HA-tagged TgMAPK1 (TGGT1_312570), immunoprecipitated from RH strain tachyzoite lysates
As to the kind of experiment: in vitro autokinase assay (γ[…]-ATP) on anti-HA immunoprecipitated kinase, dose response. The class given is biochemical.

T1 sequence (S8EUF0 whole entry): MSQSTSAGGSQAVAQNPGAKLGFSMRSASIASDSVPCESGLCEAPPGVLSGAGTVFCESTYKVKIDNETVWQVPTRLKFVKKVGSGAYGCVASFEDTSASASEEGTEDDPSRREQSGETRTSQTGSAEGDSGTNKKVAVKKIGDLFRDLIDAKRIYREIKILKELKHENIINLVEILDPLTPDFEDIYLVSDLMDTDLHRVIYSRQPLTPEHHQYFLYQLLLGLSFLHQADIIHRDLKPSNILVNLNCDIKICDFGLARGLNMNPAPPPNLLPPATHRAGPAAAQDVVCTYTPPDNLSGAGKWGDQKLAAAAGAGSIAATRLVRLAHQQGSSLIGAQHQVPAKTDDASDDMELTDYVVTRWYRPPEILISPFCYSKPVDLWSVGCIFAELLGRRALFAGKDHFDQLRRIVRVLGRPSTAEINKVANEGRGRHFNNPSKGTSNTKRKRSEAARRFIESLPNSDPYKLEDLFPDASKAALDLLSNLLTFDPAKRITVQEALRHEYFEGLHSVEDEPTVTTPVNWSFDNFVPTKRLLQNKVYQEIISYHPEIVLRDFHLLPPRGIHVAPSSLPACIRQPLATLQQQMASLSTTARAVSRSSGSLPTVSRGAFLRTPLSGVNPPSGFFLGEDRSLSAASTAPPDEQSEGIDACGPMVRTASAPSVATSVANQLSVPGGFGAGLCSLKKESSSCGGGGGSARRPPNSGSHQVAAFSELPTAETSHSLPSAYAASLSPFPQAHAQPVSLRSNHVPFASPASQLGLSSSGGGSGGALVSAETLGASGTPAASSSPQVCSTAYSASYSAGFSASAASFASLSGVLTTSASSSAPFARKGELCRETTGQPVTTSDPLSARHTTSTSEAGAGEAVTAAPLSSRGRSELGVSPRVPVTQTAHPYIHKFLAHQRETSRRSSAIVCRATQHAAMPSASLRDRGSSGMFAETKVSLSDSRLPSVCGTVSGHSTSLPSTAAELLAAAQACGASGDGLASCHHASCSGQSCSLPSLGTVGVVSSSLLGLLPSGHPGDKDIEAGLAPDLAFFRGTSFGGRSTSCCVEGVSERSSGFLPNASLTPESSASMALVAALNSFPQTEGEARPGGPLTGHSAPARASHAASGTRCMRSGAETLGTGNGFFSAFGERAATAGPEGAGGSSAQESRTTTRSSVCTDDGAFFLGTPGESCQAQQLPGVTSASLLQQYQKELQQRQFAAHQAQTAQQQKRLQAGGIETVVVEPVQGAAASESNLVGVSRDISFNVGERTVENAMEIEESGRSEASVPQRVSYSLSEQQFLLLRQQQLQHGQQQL

As a reminder, the IC50 is the concentration needed to halve the response being measured. Lower therefore signals inhibition by little substance. `Cc1cccc(-c2[nH]c(C(C)(C)C)nc2-c2ccc3c(c2)OCO3)n1` [SB505124, 2-(5-benzo[1,3]dioxol-5-yl-2-tert-butyl-3H-imidazol-4-yl)-6-methylpyridine hydrochloride]: the IC50 amounted to 125 nM.
